Reference: US20120172228A1, “ALCOHOL ALKOXYLATES AS ADJUVANTS FOR AGROCHEMICAL FORMULATIONS” (SYNGENTA CROP PROTECTION, LLC, priority 2009, published 2012)

How the values were obtained:
Format in all cases: in vivo
[1] = tested on: soybean; experiment: Phytotoxicity of adjuvant to soybean; details: 7 days after spray application
Procedure: (§1) The plants were sprayed with water at a rate of approximately 500 litres per hectare, the water containing 0.1% v/v or 0.2% v/v adjuvant. The plants were assessed for phytotoxicity 7 days after spray application. Each experiment was replicated twice and the results averaged. In the control experiment the plants were sprayed with water and no phytotoxicity was observed.

[2] = tested on: French bean; experiment: Phytotoxicity of adjuvant to French bean; details: 7 days after spray application
Procedure: as §1

[3] = tested on: Chinese cabbage; experiment: Phytotoxicity of adjuvant to Chinese cabbage; details: 7 days after spray application
Procedure: as §1

[4] = tested on: polygonum convolvulus (POLCO); experiment: Adjuvant with herbicide mesotrione on POLCO
[5] = tested on: digitaria sanguinalis (DIGSA); experiment: Adjuvant with herbicide mesotrione on DIGSA
[6] = tested on: brachiaria platyphyla (BRAPL), digitaria sanguinalis (DIGSA), polygonum convolvulus (POLCO), amaranthus tuberculatus (AMATU); experiment: Adjuvant with herbicide mesotrione, track sprayer, mean across four weed species
[7] = tested on: brachiaria decumbens (BRADE), digitaria sanguinalis (DIGSA), polygonum convolvulus (POLCO), amaranthus retroflexus (AMARE); experiment: Adjuvant with herbicide mesotrione, mean across four weed species (Example 28); details: mesotrione 45 or 90 g/ha; Sample 28 0.2%, Tween 20 0.5%; 7, 14 and 21 days
Procedure: (§2) In this example Sample 13 from Table 1 was compared to the oil adjuvant blend Turbocharge™. The herbicide fomesafen was applied to the weed species xanthium strumarium (XANST), setaria viridis (SETVI), abutilon theophrasti (ABUTH), and chenopodium album (CHEAL) at rates of 60 or 120 grams per hectare, using a laboratory track sprayer. Each experiment was replicated four times and the percentage damage to the weeds was assessed visually at time periods of 7, 14 and 21 days after application. Each adjuvant was applied at a rate of 0.5% of the volume of the spray water. Four effects were evaluated: pesticide rate (2 levels), adjuvant type (two levels), weed species (four levels) and days after application (three levels). […] The effect of each adjuvant was pulled out from the model and the least significant differences evaluated using a Student's t method. […]
In this example the rate response of a non-ethoxylated butylene oxide adjuvant was measured at an adjuvant rate of 0.2% by volume in order to display the excellent performance of this adjuvant compared to the commercial adjuvant' Tween 20, which was used at a rate of 0.5% by volume. […] In each case the experiments were replicated three times and the percentage damage to the weeds was assessed visually at time periods of 7, 14 and 21 days after application. […]

[8] = tested on: brachiaria platyphyla (BRAPL), digitaria sanguinalis (DIGSA), polygonum convolvulus (POLCO); experiment: Adjuvant with herbicide mesotrione, mean across three weed species (Example 20); details: mesotrione 30, 60 or 90 g/ha; Sample 13 0.2%, Tween 20 0.5%; 14 and 21 days
Procedure: as §2, with “levels). A standard simple linear model was constructed to judge the significance of these effects.” for “levels).”
In this example the rate response of the butylene oxide adjuvant 13 of Table 1 was measured to display the excellent performance of this adjuvant compared to the commercial adjuvant Tween™20, used at a rate of 0.5% by volume. […] In each case the experiments were replicated four times and the percentage damage to the weeds was assessed visually at time periods of 14 and 21 days after application.

[9] = tested on: brachiaria platyphyla (BRAPL); experiment: Adjuvant with herbicide mesotrione on BRAPL
[10] = tested on: amaranthus tuberculatus (AMATU); experiment: Adjuvant with herbicide mesotrione on AMATU
[11] = mesotrione 30, 60 or 90 g/ha, Sample 13 0.2%, Tween 20 0.5%, 14 and 21 days
[12] = mesotrione 45 and 90 g/ha, adjuvants 0.5% of spray water, 7, 14 and 21 days after application
[13] = mesotrione 45 or 90 g/ha, Sample 27 0.2%, Tween 20 0.5%, 7, 14 and 21 days

CCCCCCCC/C=C\CCCCCCCCOCCOCCOCCOCCOCCOCCOCCOCCOCCOCCO [Genapol O100]
Soybean % phytotoxicity ([1]; 0.1% v/v adjuvant in water): 3.5% | Soybean % phytotoxicity ([1]; 0.2% v/v adjuvant in water): 15% | French bean % phytotoxicity ([2]; 0.1% v/v adjuvant in water): 5% | French bean % phytotoxicity ([2]; 0.2% v/v adjuvant in water): 10% | Chinese cabbage % phytotoxicity ([3]; 0.1% v/v adjuvant in water): 2% | Chinese cabbage % phytotoxicity ([3]; 0.2% v/v adjuvant in water): 10%

Tween 20
mean efficacy (percentage damage to the weeds), POLCO [4, 11]: 32.77; B % | mean efficacy (percentage damage to the weeds), POLCO [4, 12]: 95.44; A % | mean efficacy (percentage damage to the weeds), POLCO [4, 13]: 73.61; A % | mean efficacy (percentage damage to the weeds), DIGSA [5, 11]: 45.55; A % | mean efficacy (percentage damage to the weeds), DIGSA [5, 12]: 48.33; B % | mean efficacy (percentage damage to the weeds), DIGSA [5, 13]: 41.67; A % | mean efficacy (percentage damage to the weeds), All weeds [6, 12]: 63.861; B % | mean efficacy (percentage damage to the weeds), All weeds [6, 13]: 54.54; A % | Mean kill (%) [7]: 65.8% | mean efficacy (percentage damage to the weeds), All weeds [8]: 26.11; B % | mean efficacy (percentage damage to the weeds), BRAPL [9, 11]: 26.11; B % | mean efficacy (percentage damage to the weeds), BRAPL [9, 12]: 44.72; B % | mean efficacy (percentage damage to the weeds), BRAPL [9, 13]: 33.06; B % | mean efficacy (percentage damage to the weeds), AMATU [10, 12]: 66.94; AB % | mean efficacy (percentage damage to the weeds), AMATU [10, 13]: 69.86; A %
